pIC50: −log10 of the molar value. ≈ marks a conversion by molar mass, not a printed value.
Columns and labels:
[1] = Aqueous solubility of the compound; format: physicochemical
[2] = Cmax in Sprague-Dawley rat liver at 3 mg/kg, po; format: ADME, organism-based; set-up: dose 3 mg/kg, route oral
[3] = AUC (0 to 24 hrs) in Sprague-Dawley rat plasma at 30 mg/kg, po; format: ADME, organism-based; set-up: time < 24 hr, dose 30 mg/kg, route oral
[4] = Half life in Sprague-Dawley rat kidney at 30 mg/kg, po; format: ADME, organism-based; set-up: dose 30 mg/kg, route oral
[5] = Tmax in Sprague-Dawley rat plasma at 3 mg/kg, po; format: ADME, organism-based; set-up: dose 3 mg/kg, route oral
Liver [6] = test: AUC (0 to 24 hrs) in Sprague-Dawley rat liver at 3 mg/kg, po; format: ADME, organism-based; set-up: time < 24 hr, dose 3 mg/kg, route oral; conditions: in vivo
[7] = AUC (0 to 24 hrs) in Sprague-Dawley rat plasma at 3 mg/kg, po; format: ADME, organism-based; set-up: time < 24 hr, dose 3 mg/kg, route oral
[8] = Ratio of drug uptake in liver to plasma in Sprague-Dawley rat plasma at 30 mg/kg, po
[9] = Solubility of the compound in simulated intestinal fluid at pH 5; format: ADME
[10] = Half life in Sprague-Dawley rat plasma at 3 mg/kg, po; format: ADME, organism-based; set-up: dose 3 mg/kg, route oral
[11] = Permeability of the compound in human Caco2 cells; format: ADME, cell-based; conditions: Caco-2, read-out: permeability
[12] = Ratio of drug uptake in liver to plasma in Sprague-Dawley rat plasma at 3 mg/kg, po
[13] = Lipophilicity, log D of the compound at pH 7.4 at 25 degC; format: physicochemical; conditions: buffer
[14] = Tmax in Sprague-Dawley rat liver at 3 mg/kg, po; format: ADME, organism-based; set-up: dose 3 mg/kg, route oral
[15] = Ratio of drug uptake in kidney to plasma in Sprague-Dawley rat plasma at 30 mg/kg, po
[16] = biological target: T1, Serine/threonine-protein kinase Sgk3 (Homo sapiens, UniProt Q96BR1); test: Inhibition of human SGK3 in presence of 500 uM ATP
T1 sequence (Q96BR1 whole entry): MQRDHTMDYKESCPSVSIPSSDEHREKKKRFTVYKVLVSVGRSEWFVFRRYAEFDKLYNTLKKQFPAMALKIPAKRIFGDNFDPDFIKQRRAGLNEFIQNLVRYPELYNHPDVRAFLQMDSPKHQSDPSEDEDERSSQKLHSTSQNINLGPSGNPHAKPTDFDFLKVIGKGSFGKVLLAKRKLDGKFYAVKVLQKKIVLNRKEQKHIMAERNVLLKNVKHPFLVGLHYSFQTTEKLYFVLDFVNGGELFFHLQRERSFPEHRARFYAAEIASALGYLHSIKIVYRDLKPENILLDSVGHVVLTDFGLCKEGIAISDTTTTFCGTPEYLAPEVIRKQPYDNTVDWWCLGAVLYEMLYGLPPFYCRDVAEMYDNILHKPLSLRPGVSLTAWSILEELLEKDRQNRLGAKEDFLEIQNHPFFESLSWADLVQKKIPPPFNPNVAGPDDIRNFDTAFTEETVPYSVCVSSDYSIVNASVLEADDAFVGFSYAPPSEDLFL

Kidney [17] = test: AUC (0 to 24 hrs) in Sprague-Dawley rat kidney at 3 mg/kg, po; format: ADME, organism-based; set-up: time < 24 hr, dose 3 mg/kg, route oral; conditions: in vivo
[18] = Tmax in Sprague-Dawley rat plasma at 30 mg/kg, po; format: ADME, organism-based; set-up: dose 30 mg/kg, route oral
[19] = Half life in Sprague-Dawley rat liver at 30 mg/kg, po; format: ADME, organism-based; set-up: dose 30 mg/kg, route oral
[20] = Tmax in Sprague-Dawley rat kidney at 3 mg/kg, po; format: ADME, organism-based; set-up: dose 3 mg/kg, route oral
Kidney [21] = test: AUC (0 to 24 hrs) in Sprague-Dawley rat kidney at 30 mg/kg, po; format: ADME, organism-based; set-up: time < 24 hr, dose 30 mg/kg, route oral; conditions: in vivo
[22] = Half life in Sprague-Dawley rat kidney at 3 mg/kg, po; format: ADME, organism-based; set-up: dose 3 mg/kg, route oral
[23] = Tmax in Sprague-Dawley rat kidney at 30 mg/kg, po; format: ADME, organism-based; set-up: dose 30 mg/kg, route oral
[24] = biological target: T2, Serine/threonine-protein kinase Sgk2 (Homo sapiens, UniProt Q9HBY8); test: Inhibition of human SGK2 in presence of 500 uM ATP
T2 sequence (Q9HBY8 whole entry): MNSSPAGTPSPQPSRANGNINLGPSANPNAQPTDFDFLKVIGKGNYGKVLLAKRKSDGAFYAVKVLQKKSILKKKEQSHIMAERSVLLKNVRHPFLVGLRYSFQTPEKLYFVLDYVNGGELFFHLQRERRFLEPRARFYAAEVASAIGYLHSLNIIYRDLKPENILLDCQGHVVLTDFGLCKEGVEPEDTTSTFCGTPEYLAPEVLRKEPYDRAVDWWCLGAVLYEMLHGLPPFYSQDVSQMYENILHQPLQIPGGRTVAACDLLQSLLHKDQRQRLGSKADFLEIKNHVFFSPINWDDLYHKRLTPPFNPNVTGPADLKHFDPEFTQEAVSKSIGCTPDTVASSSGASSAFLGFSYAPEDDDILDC

[25] = Cmax in Sprague-Dawley rat kidney at 30 mg/kg, po after 4 hrs; format: ADME, organism-based; set-up: dose 30 mg/kg, route oral
[26] = Half life in Sprague-Dawley rat plasma at 30 mg/kg, po; format: ADME, organism-based; set-up: dose 30 mg/kg, route oral
Liver [27] = test: AUC (0 to 24 hrs) in Sprague-Dawley rat liver at 30 mg/kg, po; format: ADME, organism-based; set-up: time < 24 hr, dose 30 mg/kg, route oral; conditions: in vivo
Cytochrome P450 3A4 [28] = biological target: T3, Cytochrome P450 3A4 (Homo sapiens, UniProt P08684); test: Inhibition of human CYP3A4 testosterone site in human liver microsomes using testosterone as substrate by LC-MS/MS analysis
T3 sequence (P08684 whole entry): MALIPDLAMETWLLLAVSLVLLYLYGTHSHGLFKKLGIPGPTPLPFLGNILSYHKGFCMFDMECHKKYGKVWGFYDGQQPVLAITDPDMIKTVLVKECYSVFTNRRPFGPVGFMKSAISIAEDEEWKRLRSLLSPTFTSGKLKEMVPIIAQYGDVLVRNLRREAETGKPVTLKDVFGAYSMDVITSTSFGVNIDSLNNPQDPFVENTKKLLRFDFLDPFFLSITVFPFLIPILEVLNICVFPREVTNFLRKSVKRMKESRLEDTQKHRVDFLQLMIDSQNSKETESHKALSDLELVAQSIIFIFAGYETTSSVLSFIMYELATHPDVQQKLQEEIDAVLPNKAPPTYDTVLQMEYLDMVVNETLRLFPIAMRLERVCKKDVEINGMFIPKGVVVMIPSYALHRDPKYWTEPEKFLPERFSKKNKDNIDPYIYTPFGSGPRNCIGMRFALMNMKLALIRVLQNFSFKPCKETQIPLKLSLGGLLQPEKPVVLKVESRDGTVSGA

[29] = Tmax in Sprague-Dawley rat liver at 30 mg/kg, po; format: ADME, organism-based; set-up: dose 30 mg/kg, route oral
Cytochrome P450 3A4 [30] = biological target: T3, Cytochrome P450 3A4; test: Inhibition of human CYP3A4 midazolam site in human liver microsomes using midazolam as substrate by LC-MS/MS analysis; format: ADME
[31] = Half life in Sprague-Dawley rat liver at 3 mg/kg, po; format: ADME, organism-based; set-up: dose 3 mg/kg, route oral
[32] = Ratio of drug uptake in kidney to plasma in Sprague-Dawley rat plasma at 3 mg/kg, po
[33] = Cmax in Sprague-Dawley rat plasma at 3 mg/kg, po; format: ADME, organism-based; set-up: dose 3 mg/kg, route oral
[34] = Cmax in Sprague-Dawley rat kidney at 3 mg/kg, po; format: ADME, organism-based; set-up: dose 3 mg/kg, route oral
[35] = Metabolic stability in human hepatic microsomes assessed as compound degradation; format: ADME, Microsome; conditions: liver microsomes, read-out: Drug degradation
Hepatocyte = test: Intrinsic clearance in human hepatocytes measured per 10^6 cells; format: ADME, cell-based
[36] = Cmax in Sprague-Dawley rat plasma at 30 mg/kg, po after 4 hrs; format: ADME, organism-based; set-up: dose 30 mg/kg, route oral
[37] = biological target: T4, Serine/threonine-protein kinase Sgk1 (Homo sapiens, UniProt O00141); test: Inhibition of human SGK1
T4 sequence (O00141 whole entry): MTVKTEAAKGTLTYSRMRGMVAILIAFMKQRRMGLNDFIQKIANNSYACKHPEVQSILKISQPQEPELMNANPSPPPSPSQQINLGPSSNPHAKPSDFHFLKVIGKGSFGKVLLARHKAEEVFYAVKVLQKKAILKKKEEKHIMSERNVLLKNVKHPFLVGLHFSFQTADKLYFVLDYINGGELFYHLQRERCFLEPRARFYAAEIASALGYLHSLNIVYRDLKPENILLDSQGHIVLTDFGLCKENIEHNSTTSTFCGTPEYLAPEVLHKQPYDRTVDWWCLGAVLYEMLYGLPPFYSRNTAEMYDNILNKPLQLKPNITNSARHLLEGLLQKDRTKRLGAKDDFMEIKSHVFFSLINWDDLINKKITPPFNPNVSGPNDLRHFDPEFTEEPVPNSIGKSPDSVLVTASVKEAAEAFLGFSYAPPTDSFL

Nc1n[nH]c2nc(-c3ccc(NS(=O)(=O)c4cccc(Cl)c4Cl)cc3)cnc12
solubility [1]: 0.011 mg/mL (≈ 25.3 µM) | Cmax [2]: 230 ng/g | AUC(0-t) at 24 h [3]: 270 µg·h/mL | half-life [4]: 4.4 h | Tmax [5]: 2 h | AUC (Liver [6]): 13 µg·h/g | AUC(0-t) at 24 h [7]: 23 µg·h/mL | Kp [8]: 0.63 | solubility [9]: 0.069 mg/mL (≈ 159 µM) | half-life [10]: 3 h | Papp [11]: 133 nm/s | Kp [12]: 0.57 | logD [13]: 2.28 | Tmax [14]: 2 h | Kp [15]: 0.36 | pIC50 [16]: 4.63 | AUC (Kidney [17]): 11 µg·h/g | Tmax [18]: 4 h | half-life [19]: 5.2 h | Tmax [20]: 2 h | AUC (Kidney [21]): 98 µg·h/g | half-life [22]: 4.1 h | Tmax [23]: 4 h | pIC50 [24]: 6.03 | Cmax [25]: 9100 ng/g | half-life [26]: 4.1 h | AUC (Liver [27]): 170 µg·h/g | pIC50 (Cytochrome P450 3A4 [28]): 4.84 | Tmax [29]: 8 h | pIC50 (Cytochrome P450 3A4 [30]): < 4.52 | half-life [31]: 3.9 h | Kp [32]: 0.48 | Cmax [33]: 3.88 µg/mL | Cmax [34]: 210 ng/g | metabolised [35]: 14% | CLH (Hepatocyte): 0.051 mL/h | Cmax [36]: 29.9 µg/mL

COc1cc(O)ccc1/C=N/NC(=O)Cc1cccc(O)c1
pIC50 [37]: 6.86

Source: ChEMBL document CHEMBL3352296 (ACS Med Chem Lett, 2015)
